Measurements taken from US20240336596A1, “PARP7 INHIBITOR AND USE THEREOF” (NOVOSTAR PHARMACEUTICALS, LTD., priority 2022, published 2024).

Columns and labels:
[1] = target: T1, recombinant human PARP7 protein (Homo sapiens, UniProt Q7Z3E1); test: Inhibition of PARP7 biological enzyme activity (histone-coated plate, Biotin-NAD+, chemiluminescence); type: biochemical; conditions: recombinant human PARP7, Biotin-NAD+ substrate
T1 construct: purchased Abcam ab271651
T1 sequence (Q7Z3E1 1-657): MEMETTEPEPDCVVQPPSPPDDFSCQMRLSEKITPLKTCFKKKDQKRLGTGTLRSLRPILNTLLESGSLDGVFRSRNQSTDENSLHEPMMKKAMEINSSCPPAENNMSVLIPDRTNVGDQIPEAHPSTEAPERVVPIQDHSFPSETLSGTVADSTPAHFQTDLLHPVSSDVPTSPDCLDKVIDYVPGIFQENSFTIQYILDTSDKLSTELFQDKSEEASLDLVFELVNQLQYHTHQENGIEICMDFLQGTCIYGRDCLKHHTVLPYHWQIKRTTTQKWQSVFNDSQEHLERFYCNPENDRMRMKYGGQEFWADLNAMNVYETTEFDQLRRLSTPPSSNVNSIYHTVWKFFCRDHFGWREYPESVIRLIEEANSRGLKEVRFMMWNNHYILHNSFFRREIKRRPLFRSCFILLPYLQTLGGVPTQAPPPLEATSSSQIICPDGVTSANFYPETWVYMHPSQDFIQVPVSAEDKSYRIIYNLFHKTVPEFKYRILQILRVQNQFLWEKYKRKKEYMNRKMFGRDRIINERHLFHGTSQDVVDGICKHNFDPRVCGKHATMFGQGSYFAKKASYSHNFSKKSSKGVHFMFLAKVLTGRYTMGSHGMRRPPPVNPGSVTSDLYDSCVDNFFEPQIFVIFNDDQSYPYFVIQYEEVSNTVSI
Procedure: The recombinant human PARP7 protein kit (Abcam, catalog number ab271651) was used for the assay. According to the kit instructions, 30 μL of histone coating solution (1.5 μg/mL) was first applied to the 384 well holes of the reaction plate and coated at 4° C. for 2 hours. Then, the histone coated solution was washed off, and 50 μL sealing buffer was added to each well, and the sealing buffer was washed off after incubation at 25° C. for 60 minutes. 1000 times the concentration of the compound was 10 configured and diluted from 1 mM to 0.05 μM, and the configured compound was transferred to 384-well plates with 25 nL per well using Echo. The final concentration of the compound in the reaction system was 1000 nM, 333.33 nM, 111.11 nM, 37.03 nM, 12.34 nM, 4.11 nM, 1.37 nM, 0.45 nM, 0.15 nM, 0.05 nM, which was used as the test hole. At the same time, 25 nL DMSO was added to the negative control well and the positive control well. The PARP7 enzyme solution with a concentration of 1.67 times was prepared, and the PARP7 enzyme solution was added to the test hole and the positive control hole with 15 μL each, while the negative control hole was added with 15 μL base Buffer, and incubated at 25° C. for 15 minutes. Then 10 μL 2.5 times Biotin-NAD+ substrate solution was added and incubated at 25° C. for 60 min. After the reaction solution was washed off, the 384-well reaction plates were treated with closed buffer solution diluted with streptavidin-HRP (1:500), each well was 30 μL, and incubated at 25° C. for 30 min. After the HRP buffer was washed off, 30 μL HRP chemiluminescent substrate mixture was added to each well, and the luminescence signal (RLU) of each well was detected by Envision. Calculation formula: Inhibition rate %=(average positive control-RLU compound)/(average positive control-average negative control))*100%. The dose-response curves of each compound were fitted by GraphPad Prism 8 to get IC50 values. IC50 values less than 0.01 μM are labeled as “+++”, IC50 values from 0.01 to 0.1 µM are labeled as “++”, and IC50 values greater than 0.1 to 10.0 μM are labeled as “+”.

[2] = test system: NCI-H1373 cancer cells; test: NCI-H1373 cancer cell growth inhibition (CellTiter-Glo, 144 hours); type: cell-based; conditions: Homo sapiens, 144 hours culture
Procedure: Promega CellTiter-Glo cell activity assay kit (Item No.: Promege-G7573) was used to determine the cell activity. 90 μL NCI-H1373 cell suspension (ATCC, catalog No. CRL-5866, batch No. 58078716) was spread into the pores of the 96-well plate with 3500 cells per well. After 24 hours, the 10 μL prepared 10× compound working solution was added into the pores of the cell culture plate with a final concentration of 10 μM. 3.3333 μM, 1.1111 μM, 0.3704 μM, 0.1235 μM, 0.0412 μM, 0.0137 μM, 0.0046 μM, 0.0015 μM, 0.0005 μM, 10 μL DMSO was added to the solvent control, and the final concentration of DMSO was 0.2%. The 0-day plates were collected for analysis, and after 144 hours of culture, the growth condition of cells was detected according to the instructions of CellTiter-Glo cell activity assay kit. Add 50 μL of CellTiter-Glo working liquid into each hole of the cell culture plate, shake the plates in the dark for 2 minutes until cell lysis, and place at room temperature for 10 minutes to detect the luminous signal (RUL) of each cell hole on the 2104En Vision board reader.
Calculation formula: Growth inhibition rate %=(1−(RLU compound−RLU Day0)/(RLU solvent control−RLU Day0))*100%. The dose-response curves of each compound were fitted by GraphPad Prism 8 to obtain IC50 values.
For the matter, IC50 values less than 0.1 μM are labeled “+++”, values from 0.1 to 1 μM are labeled “++”, and values greater than 1 to 10 μM are labeled “+”.

Q: Which results are given for `C[C@@H](CONC(=O)/C=C1/CCN(c2ncc(C(F)(F)F)cn2)CC1F)Nc1cn[nH]c(=O)c1C(F)(F)F` (stereo partly drawn) [Example 24, (Z)-2-(3-fluoro-1-(5-(trifluoromethyl)pyrimidin-2-yl)piperidin-4-ylidene)-N—((S)-2-((6-oxo-5-(trifluoromethyl)-1,6-dihydropyridazin-4-yl)amino)propoxy)acetamide]?
A: IC50 [1]: < 10 nM; IC50 [2]: 100 to 1000 nM

Q: For `O=C(CO/N=C1\CCC[C@@H]1Nc1cn[nH]c(=O)c1C(F)(F)F)N1CCN(c2ncc(C(F)(F)F)cn2)CC1` [Example 9, (S,E)-5-((2-((2-oxo-2-(4-(5-(trifluoromethyl)pyrimidin-2-yl)piperazin-1-yl)ethoxy)imino)cyclopentyl)amino)-4-(trifluoromethyl)pyridazin-3(2H)-one], which IC50 [1] is on record?
A: < 10 nM

Q: And the IC50 [2]?
A: 100 to 1000 nM

Q: What does the source list for `CC[C@@H](/C=N/OCC(=O)N1CCN(c2ncc(C(F)(F)F)cn2)CC1)Nc1cn[nH]c(=O)c1C(F)(F)F` [Example 6, (S,E)-2-((6-oxo-5-(trifluoromethyl)-1,6-dihydropyridazin-4-yl)amino)butanal O-(2-oxo-2-(4-(5-(trifluoromethyl)pyrimidin-2-yl)piperazin-1-yl)ethyl)oxime]?
A: IC50 [1]: < 10 nM; IC50 [2]: 100 to 1000 nM

Q: For `C[C@@H](/C=N/OCCC1CCN(c2ncc(C(F)(F)F)cn2)CC1)Nc1cn[nH]c(=O)c1C(F)(F)F` [Example 14, (S,E)-2-((6-oxo-5-(trifluoromethyl)-1,6-dihydropyridazin-4-yl)amino)propanal O-(2-(1-(5-(trifluoromethyl)pyrimidin-2-yl)piperidin-4-yl)ethyl) oxime], which IC50 [1] is on record?
A: < 10 nM

Q: And the IC50 [2]?
A: 1000 to 10000 nM

Q: Which IC50 [1] does the source give for `CC1=C(CC(=O)NOC[C@H](C)Nc2cn[nH]c(=O)c2C(F)(F)F)CCN(c2ncc(-c3ccccc3F)cn2)C1` [Example 28, (S)-2-(1-(5-(2-fluorophenyl)pyrimidin-2-yl)-5-methyl-1,2,3,6-tetrahydropyridin-4-yl)-N-(2-((6-oxo-5-(trifluoromethyl)-1,6-dihydropyridazin-4-yl)amino)propoxy)acetamide] here?
A: < 10 nM

Q: What about the IC50 [2] of the same compound?
A: 100 to 1000 nM

Q: Which results are given for `CC(/C=N/OCC(=O)N1CCN(c2ncc(C(F)(F)F)cn2)CC1)c1cccc2c(=O)[nH]ncc12` (stereo not shown) [Example 18, (E)-2-(1-oxo-1,2-dihydrophthalazin-5-yl)propanal O-(2-oxo-2-(4-(5-(trifluoromethyl)pyrimidin-2-yl)piperazin-1-yl)ethyl) oxime]?
A: IC50 [1]: < 10 nM; IC50 [2]: 1000 to 10000 nM

Q: How did the IC50 [1] turn out when `C[C@@H](/C=N/OCC(=O)N1CCN(c2ccc(C#N)cn2)CC1)Nc1cn[nH]c(=O)c1C(F)(F)F` [Example 11, (S,E)-6-(4-(2-(((2-((6-oxo-5-(trifluoromethyl)-1,6-dihydropyridazin-4-yl)amino)propylidene)amino)oxy)acetyl)piperazin-1-yl)nicotinonitrile] was run?
A: < 10 nM

Q: And the IC50 [2]?
A: 1000 to 10000 nM

Q: `O=C(CO/N=C/[C@@H](Nc1cn[nH]c(=O)c1C(F)(F)F)C1CC1)N1CCN(c2ncc(C(F)(F)F)cn2)CC1` [Example 10, (S,E)-2-cyclopropyl-2-((6-oxo-5-(trifluoromethyl)-1,6-dihydropyridazin-4-yl)amino)acetaldehyde O-(2-oxo-2-(4-(5-(trifluoromethyl)pyrimidin-2-yl)piperazin-1-yl)ethyl) oxime] was tested. Which IC50 [1] did it give?
A: < 10 nM

Q: What about the IC50 [2] of the same compound?
A: 100 to 1000 nM

Q: `CC1CN(c2ncc(C3CC3)cn2)CC=C1CC(=O)NOC[C@H](C)Nc1cn[nH]c(=O)c1C(F)(F)F` (stereo partly drawn) [Example 30, 2-(1-(5-cyclopropylpyrimidin-2-yl)-3-methyl-1,2,3,6-tetrahydropyridin-4-yl)-N—((S)-2-((6-oxo-5-(trifluoromethyl)-1,6-dihydropyridazin-4-yl)amino)propoxy)acetamide] was tested. Which IC50 [1] did it give?
A: < 10 nM

Q: And the IC50 [2]?
A: < 100 nM

Q: What does the source list for `CC(=O)c1c(N[C@@H](C)CONC(=O)CC2CCN(c3ncc(C(F)(F)F)cn3)CC2)cn[nH]c1=O` [Example 36, (S)—N-(2-((5-acetyl-6-oxo-1,6-dihydropyridazin-4-yl)amino)propoxy)-2-(1-(5-(trifluoromethyl)pyrimidin-2-yl)piperidin-4-yl)acetamide]?
A: IC50 [1]: < 10 nM; IC50 [2]: < 100 nM

Q: Which IC50 [1] does the source give for `CC(/C=N/OCC(=O)N1CCN(c2ccc(C(F)(F)F)cn2)CC1)c1cccc2c(=O)[nH]ncc12` (stereo not shown) [Example 19, (E)-2-(1-oxo-1,2-dihydrophthalazin-5-yl)propanal O-(2-oxo-2-(4-(5-(trifluoromethyl)pyridin-2-yl)piperazin-1-yl)ethyl) oxime] here?
A: < 10 nM

Q: And the IC50 [2]?
A: 1000 to 10000 nM

Q: `C[C@@H](CONC(=O)/C=C1\CCN(c2ncc(C(F)(F)F)cn2)CC1F)Nc1cn[nH]c(=O)c1C(F)(F)F` (stereo partly drawn) [Example 23, (E)-2-(3-fluoro-1-(5-(trifluoromethyl)pyrimidin-2-yl)piperidin-4-ylidene)-N—((S)-2-((6-oxo-5-(trifluoromethyl)-1,6-dihydropyridazin-4-yl)amino)propoxy)acetamide] was tested. Which IC50 [1] did it give?
A: < 10 nM

Q: What about the IC50 [2] of the same compound?
A: 100 to 1000 nM

Q: `C[C@@H](/C=N/OCC(=O)N1CCN(c2ncc(C#N)cn2)CC1)Nc1cn[nH]c(=O)c1C(F)(F)F` [Example 7, (S,E)-2-(4-(2-(((2-((6-oxo-5-(trifluoromethyl)-1,6-dihydropyridazin-4-yl)amino)propylidene)amino)oxy)acetyl)piperazin-1-yl)pyrimidine-5-carbonitrile] was tested. Which IC50 [1] did it give?
A: < 10 nM

Q: And the IC50 [2]?
A: 1000 to 10000 nM

Q: `C[C@@H](/C=N/OCC(=O)N1CCN(c2ncc(C(F)(F)F)cn2)CC1)Nc1cn[nH]c(=O)c1C(F)(F)F` [Example 5, (S,E)-2-((6-oxo-5-(trifluoromethyl)-1,6-dihydropyridazin-4-yl)amino) propanal O-(2-oxo-2-(4-(5-(trifluoromethyl)pyrimidin-2-yl)piperazin-1-yl)ethyl) oxime] was tested. Which IC50 [1] did it give?
A: < 10 nM

Q: And the IC50 [2]?
A: < 100 nM
